Patent US8247211B2, “Glycopeptide antibiotics” (American Cyanamid Company, priority 2001, dated 2012)
In brackets after ≈: the same amount, converted by molar mass.

How the values were obtained:
Assay in all cases: In vitro antibacterial evaluation: minimum inhibitory concentration (MIC), broth dilution method
Type in all cases: cell-based
Staphylococcus sp. = details: for MIC Staphylococcus aureus-SMITH (GC 4543): strain GC 4543; for MIC Staphylococcus haemolyticus (GC 4546): strain GC 4546; for MIC Coagulase Negative Staphylococcus (GC 4547): strain GC 4547; for MIC Coagulase Negative Staphylococcus (GC 4548): strain GC 4548; for MIC Coagulase Negative Staphylococcus (GC 4549): strain GC 4549; for MIC Coagulase Negative Staphylococcus (GC 4551): strain GC 4551; for MIC Coagulase Negative Staphylococcus (GC 6257): strain GC 6257
Method: (§1) The minimum inhibitory concentration (MIC), the lowest concentration of the antibiotic which inhibits growth of the test organism, is determined by the broth dilution method using Muller-Hinton II […] (Baltimore Biological Laboratories) following the recommendations of the National Committee for Clinical Laboratory Standards [Methods for dilution antimicrobial susceptibility tests for bacteria that grow aerobically, approved standard M7-A2, National Committee for Clinical Laboratory Standards, Villanova, Pa].
(§2) An inoculum level of 5×10^5 CFU/mL, and a range of antibiotic concentrations (64-0.06 μg/mL) is used. […] The test organisms include a spectrum of Gram-positive bacteria comprised of Staphylococcus sp., Streptococcus sp. and Enterococcus sp. These organisms include recent clinical isolates that are resistant to methicillin, penicillin and/or vancomycin.

Streptococcus sp. = details: broth dilution, 5×10^5 CFU/mL, 18 hours at 35° C.
Method: as §1, §2

Enterococcus sp. = details: broth dilution, 5×10^5 CFU/mL, 18 hours at 35° C.
Method: as §1, §2

Escherichia coli = details: 5×10^5 CFU/mL, 18 hours at 35° C.
Method: as §1, §2

[1] = broth dilution, 18 hours at 35° C.

CC(c1ccccc1)C1NC(=O)CNC(=O)C(CO)NC(=O)C(C(O)C2CNC(=N)N2C2OC(CO)C(O)C(O)C2O)NC(=O)C(C(O)C2CNC(=N)N2)NC(=O)C(Cc2ccc(OC3OC(CO)C(OC4OC(CO)C(O)C5OC(c6ccccc6)OC45)C(O)C3O)cc2)NC1=O (single isomer, unassigned) [Example 104b, Cyclo[glycyl-β-methylphenylalanyl-O-[4-O-(2,3-O-benzylidenehexopyranosyl)hexopyranosyl]-tyrosyl-3(2-iminoimidazolidin-4-yl)seryl-3-(3-hexopyranosyl-2-iminoimidazolidin-4-yl)-serylseryl]]
MIC Staphylococcus aureus (ATCC 29213) (Staphylococcus sp.; strain ATCC 29213): 0.5 µg/mL (≈ 0.361 µM)
MIC Staphylococcus aureus (GC 1131) (Staphylococcus sp.; strain GC 1131): 0.5 µg/mL (≈ 0.361 µM)
MIC Staphylococcus aureus (GC 3051) (Staphylococcus sp.; strain GC 3051): 0.5 µg/mL (≈ 0.361 µM)
MIC Staphylococcus aureus (GC 3053) (Staphylococcus sp.; strain GC 3053): 0.5 µg/mL (≈ 0.361 µM)
MIC Staphylococcus aureus (GC 4541) (Staphylococcus sp.; strain GC 4541): 0.5 µg/mL (≈ 0.361 µM)
MIC Staphylococcus aureus (GC 4542) (Staphylococcus sp.; strain GC 4542): 0.5 µg/mL (≈ 0.361 µM)
MIC Staphylococcus aureus-SMITH (GC 4543) (Staphylococcus sp.; 18 hours at 35° C.): 0.5 µg/mL (≈ 0.361 µM)
MIC Staphylococcus aureus-SMITH (GC 4543) (Staphylococcus sp.; [1]): 0.5 µg/mL (≈ 0.361 µM)
MIC Staphylococcus aureus (GC 4544) (Staphylococcus sp.; strain GC 4544): 0.5 µg/mL (≈ 0.361 µM)
MIC Staphylococcus aureus (GC 4545) (Staphylococcus sp.; strain GC 4545): 0.5 µg/mL (≈ 0.361 µM)
MIC Staphylococcus haemolyticus (GC 4546) (Staphylococcus sp.): 0.5 µg/mL (≈ 0.361 µM)
MIC Staphylococcus haemolyticus (GC 4546) (Staphylococcus sp.; [1]): 0.5 µg/mL (≈ 0.361 µM)
MIC Coagulase Negative Staphylococcus (GC 4547) (Staphylococcus sp.): 4 µg/mL (≈ 2.89 µM)
MIC Coagulase Negative Staphylococcus (GC 4547) (Staphylococcus sp.; [1]): 4 µg/mL (≈ 2.89 µM)
MIC Coagulase Negative Staphylococcus (GC 4548) (Staphylococcus sp.): 4 µg/mL (≈ 2.89 µM)
MIC Coagulase Negative Staphylococcus (GC 4548) (Staphylococcus sp.; [1]): 4 µg/mL (≈ 2.89 µM)
MIC Coagulase Negative Staphylococcus (GC 4549) (Staphylococcus sp.): 4 µg/mL (≈ 2.89 µM)
MIC Coagulase Negative Staphylococcus (GC 4549) (Staphylococcus sp.; [1]): 4 µg/mL (≈ 2.89 µM)
MIC Coagulase Negative Staphylococcus (GC 4551) (Staphylococcus sp.): 8 µg/mL (≈ 5.78 µM)
MIC Coagulase Negative Staphylococcus (GC 4551) (Staphylococcus sp.; [1]): 8 µg/mL (≈ 5.78 µM)
MIC Coagulase Negative Staphylococcus (GC 6257) (Staphylococcus sp.): 2 µg/mL (≈ 1.45 µM)
MIC Coagulase Negative Staphylococcus (GC 6257) (Staphylococcus sp.; [1]): 2 µg/mL (≈ 1.45 µM)
MIC Streptococcus agalactiae (GC 4564) (Streptococcus sp.): 0.5 µg/mL (≈ 0.361 µM)
MIC Streptococcus pneumoniae (GC 1894) (Streptococcus sp.): 0.12 µg/mL (≈ 0.0867 µM)
MIC Streptococcus pneumoniae (GC 4565) (Streptococcus sp.): 0.12 µg/mL (≈ 0.0867 µM)
MIC Streptococcus pneumonine (ATCC 6301) (Streptococcus sp.): 0.12 µg/mL (≈ 0.0867 µM)
MIC Streptococcus pyogenes (GC 4563) (Streptococcus sp.): 0.12 µg/mL (≈ 0.0867 µM)
MIC Enterococccus avium (GC 4558) (Enterococcus sp.): 0.5 µg/mL (≈ 0.361 µM)
MIC Enterococccus faecalis (ATCC 29212) (Enterococcus sp.): 0.5 µg/mL (≈ 0.361 µM)
MIC Enterococccus faecalis (GC 2691) (Enterococcus sp.): 0.5 µg/mL (≈ 0.361 µM)
MIC Enterococccus faecalis (GC 3059) (Enterococcus sp.): 0.5 µg/mL (≈ 0.361 µM)
MIC Enterococccus faecalis (GC 4552) (Enterococcus sp.): 0.5 µg/mL (≈ 0.361 µM)
MIC Enterococccus faecalis (GC 4553) (Enterococcus sp.): 0.5 µg/mL (≈ 0.361 µM)
MIC Enterococccus faecalis (GC 4554) (Enterococcus sp.): 0.5 µg/mL (≈ 0.361 µM)
MIC Enterococccus faecalis (GC 6189) (Enterococcus sp.): 0.5 µg/mL (≈ 0.361 µM)
MIC Enterococccus faecium (GC 2243) (Enterococcus sp.): 0.5 µg/mL (≈ 0.361 µM)
MIC Enterococccus faecium (GC 4556) (Enterococcus sp.): 0.5 µg/mL (≈ 0.361 µM)
MIC Enterococccus faecium (GC 4557) (Enterococcus sp.): 0.5 µg/mL (≈ 0.361 µM)
MIC Enterococcus faecalis (GC 2242) (Enterococcus sp.): 0.5 µg/mL (≈ 0.361 µM)
MIC Escherichia coli (ATCC 25922) (Escherichia coli): >0.5 µg/mL
MIC Escherichia coli (GC 4559) (Escherichia coli): >0.5 µg/mL
MIC Escherichia coli (GC 4560) (Escherichia coli): 0.5 µg/mL (≈ 0.361 µM)
